Measured values: PubChem BioAssay (NCI)
Where “and” joins values, the source holds several entries; their conditions need not be identical. Equal values may be shown once.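 Interpolation was linear, between the two tested concentrations surrounding the appropriate level; five concentrations were tested over 48 hours in 96-well plates. Abbreviation: GI50, concentration required for 50% inhibition of growth. The concentration for full growth arrest is given as TGI.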

Experiments:
Test in all cases: NCI-60 cell line screen, 48 h
NCI-H23 lung = system: NCI-H23 lung
HL-60(TB) leukemia = system: HL-60(TB) leukemia
SF-268 CNS = system: SF-268 CNS
UO-31 renal = system: UO-31 renal
SN12C renal = system: SN12C renal
786-0 renal = system: 786-0 renal
KM12 colon = system: KM12 colon
OVCAR-8 ovarian = system: OVCAR-8 ovarian
IGROV1 ovarian = system: IGROV1 ovarian
HOP-62 NSCLC = system: HOP-62 NSCLC

SMILES	GI50 (NCI-H23 lung)	TGI (NCI-H23 lung)	GI50 (HL-60(TB) leukemia)	TGI (HL-60(TB) leukemia)	GI50 (SF-268 CNS) [µM]	TGI (SF-268 CNS)	GI50 (UO-31 renal)	TGI (UO-31 renal)	GI50 (SN12C renal)	TGI (SN12C renal)	GI50 (786-0 renal)	TGI (786-0 renal)	GI50 (KM12 colon)	TGI (KM12 colon)	GI50 (OVCAR-8 ovarian)	TGI (OVCAR-8 ovarian)	GI50 (IGROV1 ovarian)	GI50 (HOP-62 NSCLC)	TGI (HOP-62 NSCLC)	TGI (IGROV1 ovarian)
CN(c1ccccc1)c1c2ccccc2nc2[nH]c3ccccc3c12	6.4 µM	28.7 µM	985 nM	6.25 µM	3.41	15.2 µM	1.22 µM	3.66 µM	1.68 µM	5.06 µM	1.76 µM	4.33 µM	2.24 µM	7.4 µM	2.46 µM	> 29.3 µM	1.79 µM	1.96 µM	5.97 µM	
CN(C)CCCC1(c2ccc(F)cc2)OCc2cc(-c3csc4ccccc34)ccc21 (stereo not drawn)	1.55 µM	3.02 µM	1770 nM	3.7 µM	1.64	3.19 µM	1.25 µM	2.62 µM	1.63 µM	3.13 µM	1.84 µM	3.63 µM	1.71 µM	3.16 µM	1.87 µM	3.84 µM	1.35 µM	1.57 µM	3.31 µM	2.96 µM
O=C1NC(=O)C2C3C=CC(C12)C1C2C(=O)NC(=O)C2C31 (stereo not drawn)	727 µM	250 µM and > 1000 µM		206 µM and > 1000 µM	> 896	> 1000 µM	596 µM	250 µM and > 1000 µM	419 µM	250 µM and > 1000 µM	> 250 µM	> 1000 µM	> 1000 µM	250 µM and > 1000 µM	880 µM	206 µM and > 1000 µM	> 770 µM	> 644 µM		248 µM and > 1000 µM
COc1ccc2cc3n(c(=O)c2c1)CCc1c-3cc(OC)c(OC)c1OC		> 100 µM		> 100 µM		> 100 µM		> 100 µM		> 100 µM		> 100 µM				> 100 µM			> 100 µM	> 100 µM
N#C[Se]CCN1C(=O)c2ccccc2C1=O	2.93 µM	18.8 µM	2230 nM	5.71 µM	1.83	3.84 µM	2.09 µM	7.92 µM	2.69 µM	10.9 µM	2.1 µM	5.09 µM	3.14 µM	45.3 µM	2.66 µM	8.26 µM	2.02 µM	2.17 µM	6.45 µM	6.12 µM
FC(F)(F)c1cccc(CNC2CCN(CCc3ccccc3)CC2)c1	51.8 µM	> 100 µM	20900 nM	49 µM	40.3	> 100 µM	17 µM	> 100 µM	55.6 µM	> 100 µM	14.6 µM	32.6 µM	22.5 µM	56.6 µM	18.2 µM	43.8 µM	55.9 µM	37.5 µM	> 100 µM	> 100 µM
COc1nc(N)nc2nc[nH]c12	> 800 µM and 888 µM	> 1000 µM	715000 nM and 210000 nM	500 µM and 800 µM and > 1000 µM	646	500 µM and 800 µM and > 1000 µM	161 µM and 299 µM	485 µM and 579 µM and > 1000 µM	536 µM and 552 µM	500 µM and 800 µM and > 1000 µM	639 µM and 214 µM	500 µM and 800 µM and > 418 µM	> 800 µM and 842 µM	> 1000 µM	> 800 µM and 579 µM	> 800 µM	460 µM and 529 µM	576 µM and 582 µM	180 µM and 800 µM and > 923 µM	454 µM and 800 µM and > 1000 µM
C=C(C)c1nc(Oc2ccccc2)nc(Oc2ccccc2)n1		21.5 µM		4.51 µM		16.2 µM		32.1 µM		16.4 µM		15 µM		10.9 µM		24.4 µM			25 µM	22.4 µM
Nc1ccccc1C(=O)/C=C/c1ccccc1O		> 100 µM		58.8 µM		> 100 µM		> 100 µM		> 100 µM		> 100 µM		> 100 µM		> 100 µM			> 100 µM	> 100 µM
COc1ccc(Cn2c(Br)c3c(c2-c2cc(OC)c(OC)c(OC)c2)CCc2sc(N)nc2-3)cc1	2.69 µM	> 58.3 µM	465 nM	3.67 µM	1.73	20.8 µM	1.5 µM	17.9 µM	2.15 µM	14.2 µM	2.17 µM	> 49.8 µM	1.18 µM	> 30 µM	1.32 µM	16.9 µM	1.28 µM	1.33 µM	> 47 µM	9.19 µM
CC(C)(C)C1CCC(O)(c2ccccc2)CC1 (stereo not drawn)		> 100 µM		66.8 µM and 32.5 µM				> 100 µM		> 100 µM and 34.7 µM		> 100 µM and 41.6 µM		> 100 µM and 63.6 µM		> 100 µM and 46.9 µM			> 100 µM	> 100 µM and 81.5 µM
O=C(CCN1CCOCC1)Nc1ccc(Cn2nnc3c2C(=O)c2nnn(Cc4ccc(NC(=O)CCN5CCOCC5)cc4)c2C3=O)cc1	1.43 µM	5.52 µM	1140 nM	4.63 µM	1.28	> 100 µM	> 100 µM	> 100 µM	0.52 µM	2 µM	> 100 µM	> 100 µM			> 100 µM	> 100 µM		57.7 µM	> 100 µM	
C=CCN(CC=C)Cc1c[nH]c2ccccc12	14 µM	52.8 µM	84200 nM	> 100 µM	11.5	32.5 µM	35.2 µM	> 100 µM	16 µM	41.8 µM	4.33 µM	14.7 µM	32.2 µM	> 100 µM	11.9 µM	69 µM	16 µM			42.6 µM
O=[N+]([O-])c1ccc(/C=C(/c2ccc([N+](=O)[O-])o2)S(=O)(=O)c2ccccc2)cc1		> 100 µM		74.1 µM		> 100 µM		> 100 µM				> 100 µM		> 100 µM		> 100 µM			> 100 µM	> 100 µM
C/C(=C\c1csc(C)n1)[C@@H]1C[C@@H]2O[C@]2(C)CCC[C@H](C)[C@H](O)[C@@H](C)C(=O)C(C)(C)[C@@H](O)CC(=O)N1	0.00019 µM	0.000412 µM	0.083 nM	0.000163 µM	0.000215	0.000446 µM	0.000126 µM	0.000177 µM	0.000214 µM	0.000418 µM	0.000182 µM	0.000356 µM	0.000141 µM	0.000354 µM	0.000112 µM	0.000184 µM		0.000352 µM	0.000508 µM	
CC(=O)O[C@H]([C@H](OC(C)=O)[C@H](C)OC(C)=O)[C@@H](/C=C/[C@H]1CC=CC(=O)O1)OC(C)=O	66.6 µM	> 100 µM	59400 nM	> 100 µM	41.6	> 100 µM	> 100 µM	> 100 µM	83.3 µM	> 100 µM	97.3 µM	> 100 µM	> 100 µM	> 100 µM	51.2 µM	> 100 µM		48.5 µM	> 100 µM	
COc1cc2c(cc1C)NC(=O)/C2=C\c1ccc(Oc2ccccc2)cc1	15.6 µM	32.2 µM	51.1 nM	11.8 µM			14.8 µM	30.9 µM	14.4 µM	27.5 µM	12 µM	24.8 µM	13.6 µM	30.4 µM	22.8 µM	64.6 µM	15.7 µM	16.9 µM	31 µM	36.9 µM
CN(C)c1ccc(/C=C2\CCc3ccccc3C2=O)cc1Br		> 100 µM		58.5 µM		> 100 µM		> 100 µM		> 100 µM		> 100 µM		> 100 µM		> 100 µM			> 100 µM	
N#CC1(CCCCl)CCCCC1		> 100 µM		> 100 µM		> 100 µM		> 100 µM		> 100 µM		> 100 µM		> 100 µM		> 100 µM				> 100 µM
CC(C)CCCC(C)C1CCC2C3CC([N+](=O)[O-])=C4CC(O)CCC4(C)C3CCC12C (stereo not drawn)		48.6 µM		60.6 µM		62.9 µM				32.1 µM		33 µM		37 µM		47.4 µM			42.3 µM	50.1 µM
CCOC(=O)C1C(NC(N)=O)N(Cc2ccccc2)C(=O)N1Cc1ccccc1 (stereo not drawn)				> 100 µM		> 100 µM		> 100 µM				> 100 µM		> 100 µM		> 100 µM			> 100 µM	> 100 µM
O=C(NO)c1ccc(CNc2cccc3nc(C4CC4)n(-c4ccccc4)c(=O)c23)cc1			2390 nM	5.64 µM			1.45 µM	2.96 µM	2.4 µM	10.9 µM	2.18 µM	5.2 µM			1.65 µM	5.82 µM	1.44 µM	1.89 µM	4.72 µM	3.01 µM
O=[N+]([O-])c1ccc(/C=C/c2ccc(/C=C/c3ccc([N+](=O)[O-])cc3[N+](=O)[O-])cc2)c([N+](=O)[O-])c1		> 100 µM		> 100 µM				> 100 µM				> 100 µM		> 100 µM		> 100 µM			> 100 µM	> 100 µM
ON1CCc2c([nH]c3ccccc23)C1c1ccc(Cl)cc1 (stereo not drawn)		86.9 µM		79.5 µM		> 100 µM		91.7 µM		81 µM		> 100 µM		92.9 µM		> 100 µM			> 100 µM	
